Source: ChEMBL document CHEMBL1201862, “PubChem BioAssay data set” (2004)
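Method: 48-hour compound exposure of cells in 96-well plates, five concentrations, linear interpolation of endpoints. Here, GI50 denotes the concentration required for 50% inhibition of growth.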 The source made the active and inactive calls. Rule as the data show it: active = GI50 up to about 1.1 µM and inactive = higher.

What was measured:
Experiment in all cases: NCI tumour cell line growth inhibition, 48 h
786-0 = system: 786-0
ACHN = system: ACHN
DU-145 = system: DU-145
EKVX = system: EKVX
HCT-15 = system: HCT-15
Hs-578T = system: Hs-578T
K562 = system: K562
KM12 = system: KM12
MDA-MB-435 = system: MDA-MB-435
MDA-N = system: MDA-N
MOLT-4 = system: MOLT-4
NCI/ADR-RES = system: NCI/ADR-RES
OVCAR-8 = system: OVCAR-8
SK-MEL-2 = system: SK-MEL-2
TK-10 = system: TK-10
UACC-257 = system: UACC-257
UO-31 = system: UO-31
HL-60 = system: HL-60
SK-MEL-28 = system: SK-MEL-28
CAKI-1 = system: CAKI-1

SMILES	GI50 (786-0)	GI50 (ACHN)	GI50 (DU-145)	GI50 (EKVX)	GI50 (HCT-15) [µM]	GI50 (Hs-578T)	GI50 (K562)	GI50 (KM12)	GI50 (MDA-MB-435)	GI50 (MDA-N)	GI50 (MOLT-4)	GI50 (NCI/ADR-RES)	GI50 (OVCAR-8)	GI50 (SK-MEL-2)	GI50 (TK-10)	GI50 (UACC-257)	GI50 (UO-31)	GI50 (HL-60)	GI50 (SK-MEL-28)	GI50 (CAKI-1)
O=C(Cc1ccccc1)N/N=C1\C(=O)Nc2ccccc21	80.5 µM (inactive)	> 100 µM (inactive)	> 100 µM (inactive)	72.1 µM (inactive)	62.8	65.3 µM (inactive)	> 100 µM (inactive)	> 100 µM (inactive)	> 100 µM (inactive)	> 100 µM (inactive)	> 100 µM (inactive)	52.4 µM (inactive)	> 100 µM (inactive)	> 100 µM (inactive)	> 100 µM (inactive)	> 100 µM (inactive)	48.2 µM (inactive)	–	–	–
O=c1cc(NNc2ccc3ccccc3c2)[nH]c(=S)[nH]1	6.75 µM (inactive)	31.6 µM (inactive)	> 100 µM (inactive)	> 100 µM (inactive)	14.5	25 µM (inactive)	18.6 µM (inactive)	17.7 µM (inactive)	23.4 µM (inactive)	45.6 µM (inactive)	–	> 100 µM (inactive)	44.9 µM (inactive)	–	> 100 µM (inactive)	> 100 µM (inactive)	> 100 µM (inactive)	24.7 µM (inactive)	49.9 µM (inactive)	–
OC(c1ccc(-c2ccccc2)cc1)(c1ccc(-c2ccccc2)cc1)c1ccc(-c2ccccc2)cc1	> 100 µM (inactive)	> 100 µM (inactive)	> 100 µM (inactive)	> 100 µM (inactive)	4.56	> 100 µM (inactive)	> 100 µM (inactive)	> 100 µM (inactive)	> 100 µM (inactive)	> 100 µM (inactive)	28.6 µM (inactive)	> 100 µM (inactive)	> 100 µM (inactive)	–	> 100 µM (inactive)	> 100 µM (inactive)	> 100 µM (inactive)	> 10 µM (inactive)	> 100 µM (inactive)	> 100 µM (inactive)
COc1ccc(C2C3=C(Nc4ncnn42)c2ccccc2OC3c2ccccc2)cc1 (centres undefined)	47.1 µM (inactive)	18.5 µM (inactive)	> 100 µM (inactive)	–	17.4	19.1 µM (inactive)	11 µM (inactive)	14.6 µM (inactive)	4.3 µM (inactive)	11 µM (inactive)	6.27 µM (inactive)	47.8 µM (inactive)	80.2 µM (inactive)	6 µM (inactive)	–	70 µM (inactive)	50.1 µM (inactive)	2.27 µM (inactive)	–	26.5 µM (inactive)
CC(C)(NO)/C(=N\O)c1ccco1	> 100 µM (inactive)	> 100 µM (inactive)	> 100 µM (inactive)	> 100 µM (inactive)	> 100	24 µM (inactive)	–	> 100 µM (inactive)	> 100 µM (inactive)	> 100 µM (inactive)	20.1 µM (inactive)	> 100 µM (inactive)	> 100 µM (inactive)	> 100 µM (inactive)	> 100 µM (inactive)	> 100 µM (inactive)	> 100 µM (inactive)	–	> 100 µM (inactive)	> 100 µM (inactive)
CN(C)CCNC(=O)c1cccc2nc3c4ccccc4c4ccccc4c3nc12	2.28 µM (inactive)	5.01 µM (inactive)	1.79 µM (inactive)	5.77 µM (inactive)	1.69	1.31 µM (inactive)	1.52 µM (inactive)	1.56 µM (inactive)	1.81 µM (inactive)	1.65 µM (inactive)	0.748 µM (active)	–	2.02 µM (inactive)	3.22 µM (inactive)	5.38 µM (inactive)	3.86 µM (inactive)	9.44 µM (inactive)	1.76 µM (inactive)	1.79 µM (inactive)	17.6 µM (inactive)
CC(=O)Oc1ccc2cc(-c3ccc(OC(C)=O)c(OC(C)=O)c3)c(=O)oc2c1	> 100 µM (inactive)	> 100 µM (inactive)	41.6 µM (inactive)	30.4 µM (inactive)	> 100	54.2 µM (inactive)	49.8 µM (inactive)	32.8 µM (inactive)	61.5 µM (inactive)	> 100 µM (inactive)	> 100 µM (inactive)	40.7 µM (inactive)	> 100 µM (inactive)	> 100 µM (inactive)	26.5 µM (inactive)	97.9 µM (inactive)	56 µM (inactive)	30.5 µM (inactive)	81.7 µM (inactive)	–
CCOC(=O)N1[C@@H]2CCC[C@@H]2C(=O)[C@@H]2CCC[C@@H]21	> 100 µM (inactive)	> 100 µM (inactive)	> 100 µM (inactive)	–	> 100	> 100 µM (inactive)	> 100 µM (inactive)	> 100 µM (inactive)	> 100 µM (inactive)	> 100 µM (inactive)	> 100 µM (inactive)	> 100 µM (inactive)	> 100 µM (inactive)	> 100 µM (inactive)	–	> 100 µM (inactive)	–	> 100 µM (inactive)	> 100 µM (inactive)	> 100 µM (inactive)
CN(C)c1ccc2nc(CC(O)(C(F)(F)F)C(F)(F)F)ccc2c1	> 10 µM (inactive)	> 10 µM (inactive)	> 10 µM (inactive)	> 10 µM (inactive)	> 10	> 10 µM (inactive)	> 10 µM (inactive)	> 10 µM (inactive)	> 10 µM (inactive)	> 10 µM (inactive)	> 10 µM (inactive)	> 10 µM (inactive)	> 10 µM (inactive)	> 10 µM (inactive)	> 10 µM (inactive)	> 10 µM (inactive)	> 10 µM (inactive)	–	> 10 µM (inactive)	> 10 µM (inactive)
Nc1nc(N)nc(-c2cnc3ccccc3c2)n1	> 100 µM (inactive)	> 100 µM (inactive)	> 100 µM (inactive)	38.4 µM (inactive)	> 100	> 100 µM (inactive)	> 100 µM (inactive)	> 100 µM (inactive)	> 100 µM (inactive)	> 100 µM (inactive)	20.7 µM (inactive)	> 100 µM (inactive)	> 100 µM (inactive)	> 100 µM (inactive)	88.9 µM (inactive)	> 100 µM (inactive)	> 100 µM (inactive)	–	> 100 µM (inactive)	> 100 µM (inactive)
CCCn1cnc2c(/N=N/O)ncnc21	> 100 µM (inactive)	> 100 µM (inactive)	> 100 µM (inactive)	> 100 µM (inactive)	> 100	> 100 µM (inactive)	> 100 µM (inactive)	> 100 µM (inactive)	> 100 µM (inactive)	> 100 µM (inactive)	> 100 µM (inactive)	> 100 µM (inactive)	> 100 µM (inactive)	–	> 100 µM (inactive)	–	> 100 µM (inactive)	> 100 µM (inactive)	> 100 µM (inactive)	> 100 µM (inactive)
